Assay results reported in PubChem BioAssay (NCI).
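Step 1: Grow cells in 96-well plates. Step 2: Expose to compound for 48 hours at 5 concentrations. Step 3: Interpolate endpoints linearly; if unreached, use highest concentration. The concentration for 50% growth inhibition is given as GI50. At the TGI there is no net growth.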

Legend:
Assay in all cases: NCI anticancer screen, dose series, 48 h
[1] = system: EKVX NSCLC
[2] = system: HT29 colon
[3] = system: SR leukemia
[4] = system: A549 NSCLC
[5] = system: SF-295 CNS
[6] = system: U251 CNS
[7] = system: T-47D breast
[8] = system: DU-145 prostate
[9] = system: PC-3 prostate
[10] = system: NCI/ADR-RES ovarian

Row | Compound | TGI [1] [µM] | TGI [2] [µM] | TGI [3] [µM] | TGI [4] [µM] | TGI [5] [µM] | TGI [6] [µM] | GI50 [1] [µM] | GI50 [7] [µM] | TGI [7] [µM] | GI50 [8] [µM] | TGI [8] [µM] | GI50 [2] [µM] | GI50 [9] [µM] | TGI [9] [µM] | GI50 [4] [µM] | GI50 [5] [µM] | GI50 [6] [µM] | GI50 [10] [µM] | TGI [10] [µM] | GI50 [3] [µM]
1 | Cn1cc(NC(=O)c2cc(NC(=O)Nc3cc(C(=O)Nc4cc(C(=O)NCCC(=N)N)n(C)c4)n(C)c3)cn2C)cc1C(=O)NCCC(=N)N | > 100 | > 100 | > 100 | 83.4 | 86 | 69.9 |  |  |  |  |  |  |  |  |  |  |  |  |  | 
2 | O=S1(=O)N(Cc2ccccc2)[C@@H](Cc2ccccc2)C2O[C@H]2[C@H](Cc2ccccc2)N1Cc1ccccc1 (some centres not stated) | > 7.5 | > 7.5 |  | > 7.5 | > 7.5 | > 7.5 | 6.55 | 6.81 | > 7.5 | > 7.5 | > 7.5 | > 7.5 | 3.06 | > 7.5 | 3.78 | 1.8 | 1.84 | 5.23 | > 7.5 | 
3 | CNS(=O)(=O)NN(C)S(=O)(=O)c1ccc(Cl)cc1 | > 100 | > 100 | > 100 | > 100 | > 100 | > 100 |  |  |  |  |  |  |  |  |  |  |  |  |  | 
4 | CN(C)C(=S)NN=C(c1ccccn1)c1ccccn1 | 23.8 | > 100 |  | > 42.8 | 18.6 | > 59.4 | 0.0247 |  | > 44.9 | 0.232 | > 33.7 | < 0.01 | < 0.0123 | > 43.8 | 0.101 | 0.0421 | < 0.01 | < 0.0208 | 4.98 | 
5 | COc1cc(N=Nc2ccccc2)cc(/C=N\[N-]C(N)=S)c1[O-].COc1cc(N=Nc2ccccc2)cc(/C=N\[N-]C(N)=S)c1[O-].[Fe+4] | > 100 | > 100 |  | > 100 |  |  | > 100 |  |  |  |  | 34.9 |  |  | 46.4 |  |  |  |  | 
6 | NC1CCCCC1N.O=C([O-])P(=O)([O-])[O-].[Na+].[Pt+4] (configuration not stated) | > 100 | > 100 |  | > 100 | > 100 | > 100 | > 100 |  |  |  |  | > 100 |  |  | > 100 | > 100 | > 100 |  |  | 
7 | O=C(Nc1c(Cl)cc([N+](=O)[O-])cc1Cl)C(=O)C1C(=O)NC(=S)NC1=O | > 100 | > 100 |  | > 100 | > 100 | > 100 |  |  | > 100 |  |  |  |  | > 100 |  |  |  |  | > 100 | 
8 | c1cc(C2CCCCC2)ccc1OCCCCCCN1CCNCC1 | 47.3 | 2.98 |  | 3.65 | 3.77 | 3.17 | 5.76 | 2.14 | 4.79 | 1.88 | 3.42 | 1.45 | 2.15 | 5.97 | 1.92 | 1.92 | 1.63 | 2.36 | 5.14 | 
9 | Cc1cc2c(cc1C)[n+](=O)c(C(=O)/C=C/c1ccc(Cl)cc1)c(C)n2[O-] | > 100 | 95.5 |  | 80.4 | 69.3 | 67.9 |  |  |  |  |  |  |  |  |  |  |  |  |  | 
10 | CN(C)c1ccc(/C=C/C(=O)C(C)(C)C)cc1Br | > 100 | > 100 |  | > 100 | > 100 | > 100 |  |  |  |  |  |  |  |  |  |  |  |  |  | 
11 | NC(N)=N/N=C/c1c(-c2cccs2)nc2sccn12 | 19.1 | 27.1 |  | 45.1 | 23.6 | 33.9 | 6.32 | 14.6 | 28.6 | 13.6 | 26.4 | 13.2 | 11.1 | 23.1 | 21.7 | 11.5 | 15.8 | 14.5 | 27.6 | 
12 | C[C@]12CC/C(=N\N)C[C@@H]1CC[C@@H]1[C@@H]2CC[C@]2(C)/C(=N/N)CC[C@@H]12 | > 100 | > 100 |  | > 100 | > 100 | > 100 | > 100 | > 100 | > 100 | > 100 | > 100 | > 100 | > 100 | > 100 | > 100 | > 100 | > 100 | > 100 | > 100 | 
13 | N=S(=O)(c1ccccc1)c1ccccc1[N+](=O)[O-] (configuration not stated) | > 100 | > 100 | > 100 | > 100 | > 100 | > 100 |  |  |  |  |  |  |  |  |  |  |  |  |  | 
14 | COc1ccc(C(O)c2cc3c(N)c(C(=O)Nc4cccc(Cl)c4C)sc3nc2C)cc1 (configuration not stated) | 2.16 | 1.72 |  | 2.02 | 1.66 | 1.57 | 0.886 | 0.953 | 2.2 | 0.929 | 1.85 | 0.768 | 0.768 | 1.63 | 0.933 | 0.881 | 0.797 | 0.915 | 1.84 | 
15 | Cc1ccc(C(=O)O/N=C2/CCCCC2CN(C)C)cc1 (configuration not stated) | > 100 | > 100 | > 100 | > 100 | > 100 | > 100 |  |  |  |  |  |  |  |  |  |  |  |  |  | 
16 | COc1cccc2c1C1(O)C2CCCC12OCCCO2 (configuration not stated) |  | > 100 |  | > 100 | > 100 | > 100 |  |  |  |  |  |  |  |  |  |  |  |  |  | 
17 | CCNc1c(C(=O)N(CC)CC)c(=O)[nH]c2ncccc12 | > 100 | > 100 |  | > 100 | > 100 | > 100 |  |  |  |  |  |  |  |  |  |  |  |  |  | 
18 | CSc1ccc(-c2cc(-c3ccc(NC(=O)CCCN4CCCC4)cc3)nc(-c3ccc(NC(=O)CCCN4CCCC4)cc3)c2)cc1 |  | 3.13 |  | 3.17 | 15.4 | 3.12 |  | 6.52 | 21.7 | 4.1 | 13.3 | 1.71 | 1.8 | 3.4 | 1.67 | 3.29 | 1.64 | 12.4 | 31.3 | 
19 | O=S(=O)([O-])[O-].[Cl-].[NH2-].[NH2-].[NH2-].[NH2-].[Ru+3].c1ccc(-c2cccnc2)cc1 | > 100 | > 100 | > 100 | > 100 | > 100 | > 100 | > 100 |  |  |  |  | > 100 |  |  | > 100 | > 100 | > 100 |  |  | > 100
